Data published in patent US9598387B2 (Southern Research Institute, priority 2012, dated 2017).

Legend:
D3R [1] = target: T1, D3R (Homo sapiens (Human), UniProt P35462); experiment: D3 Mitogenesis Functional Assay (3H-thymidine uptake, CHOp-D3 cells); type: cell-based; details: for Emax at 10 µM: % maximum stimulation vs quinpirole (100%), read-out: D3 Agonist Emax; for D3 Antagonist Imax: inhibition of quinpirole stimulation of mitogenesis; for IC50: read-out: D3 Antagonist IC50
Method: (§1) These assays are based on ^3H-thymidine uptake by cells that are proliferating.
CHO cells expressing human D3 receptors (CHOp-D3 cells) were maintained in alpha-MEM with 10% fetal bovine serum (FBS, Atlas Biologicals), 0.05% pen-strep, and 200 μg/ml of G418. […] The cells are incubated at 37° C. in alpha-MEM with 10% FBS. After 48-72 hours, the cells are rinsed twice with serum-free alpha-MEM and incubated for 24 hours at 37° C. Serial dilutions of test compounds were made by the Biomek robotics system in serum-free alpha-MEM. In the functional assay for agonism, the medium is removed and replaced with 100 μL of test compound in serum-free alpha-MEM. In the antagonist assay, the serial dilution of the putative antagonist test compound was added in 90 μL (1.1× of final concentration) and 300 nM quinpirole (30 nM final) was added in 10 uL. After another 16-hour incubation at 37° C., 0.25 μCi of [^3H]thymidine in alpha-MEM supplemented with 10% FBS was added to each well and the plates were further incubated for 2 hours at 37° C. The cells were trypsinized by addition of 10× trypsin solution (1% trypsin in calcium-magnesium-free phosphate-buffered saline) and the plates were filtered and counted as usual. Quinpirole was run as an internal control and dopamine was included for comparative purposes. Butaclamol was run as the standard antagonist. Data were analyzed using GraphPAD Prism and agonist potency was expressed as EC50 values or % stimulation and antagonist potency was expressed as IC50 values. In these assays, based on the % maximum stimulation as compared to the standard agonist quinpirole (100%) the compounds were classified into following categories: ≧90% full agonist; 70-90% partial to full agonist; <70% partial agonist; 0-20% potential antagonist.

[2] = target: human D2 dopamine receptors (Homo sapiens (Human), UniProt P14416); experiment: Whole Cell Adenylyl Cyclase Assay, D2; type: cell-based; details: inhibition of forskolin (100 μM) stimulated cAMP, normalized to quinpirole; compound conc ≥10× Ki (per compound); mean ± S.E.M.
Chain of human D2 dopamine receptors (P14416 whole entry): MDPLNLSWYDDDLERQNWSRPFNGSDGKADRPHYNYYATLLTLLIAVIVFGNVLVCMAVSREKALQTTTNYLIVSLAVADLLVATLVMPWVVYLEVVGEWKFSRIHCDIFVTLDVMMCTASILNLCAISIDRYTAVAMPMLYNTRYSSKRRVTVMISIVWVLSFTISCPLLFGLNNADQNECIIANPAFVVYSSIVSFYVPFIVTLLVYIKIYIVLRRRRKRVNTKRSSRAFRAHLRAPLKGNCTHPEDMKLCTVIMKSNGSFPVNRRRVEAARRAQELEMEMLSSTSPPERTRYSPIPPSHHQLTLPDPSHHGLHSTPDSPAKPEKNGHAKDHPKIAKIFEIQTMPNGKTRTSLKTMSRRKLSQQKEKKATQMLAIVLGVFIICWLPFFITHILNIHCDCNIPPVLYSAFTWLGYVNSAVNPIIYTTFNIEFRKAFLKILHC
Method: (§2) The intrinsic activity of the compounds was evaluated by determining their ability to inhibit forskolin-dependent (100 μM) stimulation of adenylyl cyclase activity using a whole cell assay. A whole cell-cyclic AMP accumulation assay was performed with stably transfected HEK cells expressing human D2 or D3 dopamine receptors. This assay is an adaptation of an earlier published method (Su et al., Cyclic Nucleotide Res. 1976, 2, 257-285). Details regarding this method have been published (Chu, W. et al. Bioorg. Med. Chem. 2005, 13, 77-87; Taylor, M. et al. Synapse 2010, 64, 251-266). Confluent (60-80%) HEK cells transfected with recombinant D2-like dopamine receptors were grown in DMEM/10% fetal calf serum containing geneticin in […] flasks. The endogenous ATP pool is radioactively labeled by preincubating the cells in serum-free DMEM/25 mM Hepes medium containing 2 μCi/mL of [2,8-^3H]-adenine (20-Ci/mmol) in a 5% CO2 incubator at 37° C. for 75 min. The radioactive medium was removed by aspiration. Serum-free DMEM (5.6 mL) containing 25 mM HEPES, pH 7.4, and 0.1 mM of the phosphodiesterase inhibitor isobutylmethylxanthine was added to the flask. A […] aliquot of cells was removed and added to 50 μL of forskolin (100 μM) and 50 μL of test drug or quinpirole in DMEM-HEPES. The cells were incubated for 20 min at 37° C. (vortexing every 5 min). The reaction was terminated by the addition of 0.5 mL of 10% trichloroacetic acid (w/v) containing 1.0 mM unlabeled cyclic AMP as a recovery standard. Both the [^3H]-cyclic AMP and the [^3H]-ATP fractions were collected following separation using columns of Dowex AG-50W-X4 and alumina. The final yield of [^3H]-cyclic AMP is corrected for column recovery of unlabeled cyclic AMP determined spectrophotometrically (OD259). The results are reported as percent conversion of [^3H]-ATP into [^3H]-cyclic AMP. The values for the percent inhibition are reported as the actual percent of inhibition of the ^3H-cAMP accumulation relative to the assay performed in the absence of a test compound, minus basal activity. […] The percent maximum response is the value for the inhibition normalized to the value for the full agonist quinpirole.

[3] = target: T2, human D3 dopamine receptor (Homo sapiens (Human), UniProt P35462); experiment: Whole Cell Adenylyl Cyclase Assay, D3; type: cell-based; details: inhibition of forskolin (100 μM) stimulated cAMP, normalized to quinpirole; compound conc ≥10× Ki (per compound); mean ± S.E.M.
T2 sequence (P35462 whole entry): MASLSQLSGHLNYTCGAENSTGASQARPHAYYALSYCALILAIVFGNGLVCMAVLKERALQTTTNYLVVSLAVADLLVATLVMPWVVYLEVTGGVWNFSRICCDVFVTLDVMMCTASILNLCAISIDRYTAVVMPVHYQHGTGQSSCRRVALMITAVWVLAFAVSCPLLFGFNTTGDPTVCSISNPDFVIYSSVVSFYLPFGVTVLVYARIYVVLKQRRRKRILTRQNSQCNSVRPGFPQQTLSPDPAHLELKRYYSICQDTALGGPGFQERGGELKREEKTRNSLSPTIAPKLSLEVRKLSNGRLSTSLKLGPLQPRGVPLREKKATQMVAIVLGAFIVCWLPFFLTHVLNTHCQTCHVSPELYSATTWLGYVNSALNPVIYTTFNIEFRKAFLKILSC
Method: as §2

[4] = target: human D2-long dopamine receptor (Homo sapiens (Human), UniProt P14416); experiment: Radioligand binding (125I-IABN competition), D2; details: HEK cell membranes expressing human D2-long
Chain of human D2-long dopamine receptor (P14416 whole entry): as the sequence (P14416 whole entry) above
Method: (§3) The affinities of the target compounds were determined using radioligand binding experiments. […] Competition curves were modeled for a single site. Data from competition dose-response curves were analyzed using Tablecurve program (Jandel). IC50 values were converted to equilibrium dissociation constants (Ki values) using the Cheng and Prusoff correction.

[5] = target: T2, human D3 dopamine receptor; experiment: Radioligand binding (125I-IABN competition), D3; details: for Ki: 125I-IABN competition, HEK cell membranes expressing human D3; for D2/D3 (D3 selectivity ratio, D2 Ki/D3 Ki): calculated D2 Ki/D3 Ki
Method: as §3

human D2 receptors = human D2 receptors (Homo sapiens (Human), UniProt P14416); experiment: D2 Mitogenesis Functional Assay (3H-thymidine uptake, CHOp-D2 cells); type: cell-based; details: for Emax at 10 µM: % maximum stimulation vs quinpirole (100%), read-out: D2 Agonist Emax; for Emax at 10 µM / D2 Antagonist Imax: at 10 μM; for D2 Antagonist Imax: inhibition of quinpirole stimulation of mitogenesis; for IC50: read-out: D2 Antagonist IC50
Chain of human D2 receptors (P14416 whole entry): as above
Method: as §1
CHO cells expressing human D2 receptors (CHOp-D2 cells) were maintained in alpha-MEM with 10% FCS, 0.05% pen-strep, and 200 μg/mL of G418. […] The cells were incubated at 37° C. in alpha-MEM with 10% FCS. After 48-72 hours, the cells were rinsed twice with serum-free alpha-MEM and incubated for 24 hours at 37° C. Serial dilutions of test compounds were made by the Biomek robotics system in serum-free alpha-MEM. In the functional assay for agonism, the medium was removed and replaced with 100 μL of test compound in serum-free alpha-MEM. In the antagonist assay, the serial dilution of the putative antagonist test compound was added in 90 μL (1.1× of final concentration) and 300 nM quinpirole (30 nM final) was added in […]. After another 24-hour incubation at 37° C., 0.25 μCi of [^3H]thymidine in alpha-MEM supplemented with 10% FCS was added to each well and the plates were further incubated for 2 hours at 37° C. The cells were trypsinized by addition of 10× trypsin solution (1% trypsin in calcium-magnesium-free phosphate-buffered saline) and the plates were filtered and counted as usual. Quinpirole was run as an internal control and dopamine was included for comparative purposes. Butaclamol was run as the standard antagonist.

D3R [6] = target: T1, D3R; experiment: β-Arrestin Recruitment Assay, U2OS DRD3; type: cell-based
Method: (§4) Antagonist potency of the compounds against agonist induced recruitment of β-arrestin by D3R and D2LR was measured using DiscoverRx PathHunter eXpress kits. […] After incubation at 37° C. for 90 min, the DiscoveRx detection reagent was added, the plates were incubated at room temperature for 60 min and the luminescence was measured on a Synergy 4 plate reader (BioTek). The data were plotted and the agonist EC80 values were calculated using GraphPad Prism software. For antagonist activity, the cells were plated as described above and treated with multiple concentrations (starting from 500 nM, half log dilution, 10 dose points) of the test compounds in Plating Reagent with 0.1% DMSO.

D2LR = D2LR (Homo sapiens (Human), UniProt P14416); experiment: β-Arrestin Recruitment Assay, CHO-K1 DRD2L; type: cell-based; details: antagonist vs EC80 6 nM Pergolide, CHO-K1 DRD2L cells; read-out: D2 IC50
Chain of D2LR (P14416 whole entry): as above
Method: as §4

T1 sequence (P35462 whole entry): as the sequence (P35462 whole entry) above

SMILES | Emax at 10 µM (D3R [1]) | D3 Antagonist Imax (D3R [1]) | IC50 (D3R [1]) | D2 Cyclase % Inhibition Normalized [2] | D3 Cyclase % Inhibition Normalized [3] | Ki [4] | Ki [5] | D2/D3 (D3 selectivity ratio, D2 Ki/D3 Ki) [5] | Emax at 10 µM (human D2 receptors) | D2 Antagonist Imax (human D2 receptors) | IC50 (human D2 receptors) | IC50 (D3R [6]; antagonist vs EC80 8 nM PD128907, U2OS DRD3 cells, read-out: D3 IC50) | D2 IC50/D3 IC50 (D3R [6]; ratio of β-arrestin IC50 values) | IC50 (D2LR) | EC50 (D3R [1]; CHOp-D3 cells, stimulation of mitogenesis, read-out: D3 Agonist EC50) | EC50 (human D2 receptors; CHOp-D2 cells, stimulation of mitogenesis, read-out: D2 Agonist EC50)
O=C(NCCCCN1CCN(c2cccc(Cl)c2Cl)CC1)N1CCN(c2ccccc2)CC1 [Compound 3, N-(4-(4-(2,3-Dichlorophenyl)piperazin-1-yl)butyl)-4-phenylpiperazine-1-carboxamide] | < 20% | 93.1% | 0.00343 ± 0.00029 µM | 61.0 ± 4.5% | 66.4 ± 16.4% | 0.021 ± 0.0024 µM | 0.00039 ± 0.0001 µM | 54 | < 20% | 91.0% at 10 μM | 0.0146 ± 0.0055 µM | – | – | – | – | –
CN(C)Cc1cccc2nc(C(=O)NCCCCN3CCN(c4cc(C(F)(F)F)nc(C(C)(C)C)n4)CC3)cn12 [Compound 121, N-(4-(4-(2-(tert-Butyl)-6-(trifluoromethyl)pyrimidin-4-yl)piperazin-1-yl)butyl)-5-((dimethylamino)methyl)imidazo[1,2-a]pyridine-2-carboxamide] | – | – | – | – | – | 0.298 µM | 0.0273 ± 0.0034 µM | 11 | – | – | – | 0.0288 ± 0.0027 µM | 10 | 0.281 ± 0.043 µM | – | –
Cc1cc(N2CCN(CCCCNC(=O)N3CCN(c4ccccc4)CC3)CC2)nc(C(F)(F)F)n1 [Compound 7, N-(4-(4-(6-Methyl-2-(trifluoromethyl)pyrimidin-4-yl)piperazin-1-yl)butyl)-4-phenylpiperazine-1-carboxamide] | – | – | – | 30.4 ± 14.6% | 42.4 ± 8.9% | 3.88 ± 1.23 µM | 0.0415 ± 0.0091 µM | 93 | – | – | – | – | – | – | – | –
O=C(NCCCCN1CCN(c2ccccc2)CC1)N1CCN(c2ccccc2)CC1 [Compound 1, 4-Phenyl-N-(4-(4-phenylpiperazin-1-yl)butyl)piperazine-1-carboxamide] | – | – | – | 91.4 ± 2.4% | 48.3 ± 9.4% | 0.124 ± 0.0262 µM | 0.002 ± 0.0002 µM | 62 | – | – | – | – | – | – | – | –
CC(C)(C)c1nc(N2CCN(CCCCNC(=O)N3Cc4ccccc4C3)CC2)cc(C(F)(F)F)n1 [Compound 39, N-(4-(4-(2-(tert-Butyl)-6-(trifluoromethyl)pyrimidin-4-yl)piperazin-1-yl)butyl)isoindoline-2-carboxamide] | – | – | – | −24.0 ± 7.0% | 19.8 ± 6.7% | 0.778 ± 0.0295 µM | 0.0122 ± 0.002 µM | 64 | – | – | – | – | – | – | – | –
CC(C)(C)c1nc(N2CCN(CCCCNC(=O)N3CCN(c4cccc(C#N)c4)CC3)CC2)cc(C(F)(F)F)n1 [Compound 26, N-(4-(4-(2-(tert-Butyl)-6-(trifluoromethyl)pyrimidin-4-yl)piperazin-1-yl)butyl)-4-(3-cyanophenyl)piperazine-1-carboxamide] | – | – | – | 34.0 ± 9.1% | 20.0 ± 6.2% | 0.707 ± 0.0962 µM | 0.0087 ± 0.0022 µM | 81 | – | – | – | – | – | – | – | –
CC(C)(C)c1nc(N2CCN(CCCCNC(=O)N3CCN(c4ccccn4)CC3)CC2)cc(C(F)(F)F)n1 [Compound 29, N-(4-(4-(2-(tert-Butyl)-6-(trifluoromethyl)pyrimidin-4-yl)piperazin-1-yl)butyl)-4-(pyridin-2-yl)piperazine-1-carboxamide] | < 5% | 83.8% | 0.0547 ± 0.0094 µM | 21.8 ± 6.6% | 60.9 ± 4.0% | 0.74 ± 0.0983 µM | 0.008 ± 0.0016 µM | 92 | < 1% | 99.9% at 10 μM | 0.232 ± 0.061 µM | – | – | – | > 10 µM | > 10 µM
O=C(NCCCCN1CCN(c2ccnc3ccccc23)CC1)N1CCN(c2ccccc2)CC1 [Compound 11, 4-Phenyl-N-(4-(4-(quinolin-4-yl)piperazin-1-yl)butyl)piperazine-1-carboxamide] | – | – | – | 24.4 ± 3.8% | 43.1 ± 9.4% | 1.17 ± 0.128 µM | 0.0098 ± 0.0012 µM | 119 | – | – | – | – | – | – | – | –
CC(C)(C)c1nc(N2CCN(CCCCNC(=O)N3CCN(c4cccnc4)CC3)CC2)cc(C(F)(F)F)n1 [Compound 30, N-(4-(4-(2-(tert-Butyl)-6-(trifluoromethyl)pyrimidin-4-yl)piperazin-1-yl)butyl)-4-(pyridin-3-yl)piperazine-1-carboxamide] | – | – | – | 6.1 ± 7.5% | 9.1 ± 5.8% | 0.455 ± 0.086 µM | 0.0059 ± 0.0011 µM | 77 | – | – | – | – | – | – | – | –
